One experiment has as its target Kv1.3 (Homo sapiens, UniProt P22001). The experiment can be described thus: Two electrode voltage clamp, Xenopus oocytes, Kv1.3. In kind it is cell-based. On the set-up: expressed in transfected cells; host or cells: Xenopus laevis oocytes (cRNA injection). An excerpt:
Thereafter, MK-1 was synthesized. […] The blocking of […] by MK-1 is represented by filled circles; the blocking of Kv1.2 by MK-1 is represented by filled diamonds; and the blocking of Kv1.1 by MK-1 is represented by filled triangles.
(§1) To examine the effect of mokatoxin-1 on activity of potassium ion channels, cDNA encoding Rattus Kv1.1 (NCBI accession number NM_173095), Rattus Kv1.2 (NM_012970), Homo Kv1.3 (NM_002232), or Mus BK (NM_010610) were subcloned into oocyte expression vectors based on PCR3.1 and pGEM. cRNA synthesis was performed with T7 polymerase and the mMessageMachine Kit (Ambion, Austin, Tex.) according to manufacturers instructions. cRNA concentrations were determined spectroscopically. For two electrode voltage clamp recordings oocytes were extracted from Xenopus laevis and defoliculated with Collagenase Type 2 (Worthington, Lakewood, N.J.). Oocytes were maintained in ND91 solution containing 2 mM KCl, 91 mM NaCl, 1 mM MgCl2, 1.8 mM CaCl2, and 5 mM HEPES, pH 7.5, supplemented with 1% Penicillin/Streptomycin (Cellgro, Hemdon, Va.) and 0.1% Gentamycin sulfate (Gibco, Grand Island, N.Y.)) at 16° C. Stage V and VI oocytes were injected with 8 pg to 4 ng cRNA, and currents recorded 1 to 4 days later.
(§2) For dose-response measurements of toxin block of Kv1.1, Kv1,2, or Kv1.3 peak currents were recorded during a 500 ms step to 0 mV from a holding voltage of −100 mV, followed by a 200 ms step to −135 mV every 30 s. To determine the kinetics of toxin block oocytes were held at −100 mV and stepped to the test voltage of 0 mV for 100 ms followed by a 200 ms duration step to −135 mV every 2 s. BK currents were recorded during a 50 ms step to +60 mV from a holding voltage of −80 mV, followed by a 40 ms step to −100 mV every 3 s. The perfusion solution contained 2 mM KCl, 96 mM NaCl, 1 mM MgCl2, 1.8 mM CaCl2, 5 mM HEPES, pH 7.5 and 0.1% fatty acid ultra-free BSA fraction V (Roche Diagnostics Corporation, Indianapolis, Ind.). Data acquisition and processing was performed with an oocyte clamp OC-725B (Warner Instruments Corporation, Hamden, Conn.), pCLAMP (Axon, Sunnyvale, Calif.), IGOR Pro (WaveMetrics, Lake Oswego, Oreg.), and Origin6.1 (OriginLab Corporation, Northampton, Mass.) softwares. The equilibrium dissociation rates (KD) for block of Kv1.1, Kv1.2, and Kv1.3 by mokatoxin-1 were determined by fitting the dose-response data and kon and koff were calculated as described by Goldstein and Miller, 1993 (Biophys J. 1993 65 (4):1613-1619).

A further experiment concerns the target T1, BK (Mus musculus, UniProt Q08460).
T1 construct: expressed in transfected cells; host or cells: Xenopus laevis oocytes (cRNA injection)
Put plainly: Two electrode voltage clamp, Xenopus oocytes, BK. It is filed as cell-based. On the procedure: as §1, §2

The test system of the next experiment is KcsA-1.3. Put plainly: Phage ELISA on immobilized KcsA-1.3. In kind it is binding. The following applies: in words. On the procedure:
Panning was performed, in triplicate, on surfaces without a coating (none), and on immobilized KcsA-Kv1.3 receptors (KcsA-Kv1.3), wild-type KcsA receptors (KcsA-WT), and antiserum to sarafotoxin S6b (anti-S6b). The input ligands per well are 10^9, 10^8, 10^7. The ligands included: sarafotoxin S6b (upper panel FIG. 4), kaliotoxin-1 (KTX, middle row FIG. 4), no ligand helper phages (bottom row FIG. 4).
For each binding determination, 3 wells in a NUNC-Immuno MaxiSorp 96-Well plates were coated overnight at 4° C. with 1 ug of KcsA-1.3 or KcsA in 50 ul of 100 mM NaHCO3, 1 mM DDM, pH 9, then washed once with Tris-HC150 mM, NaCl-150 mM pH7.5 containing 0.1% Tween 20, 1 mM DDM (TBST). Wells were then blocked at room temperature with 200 ul of Tris 50 mM NaCl 150 mM pH 7.5, 1 mM DDM, (TBS) containing 0.5% BSA, then washed once with TBST. For each well, 108-1010 phages were added in 50 ul of TBS containing 0.5% BSA and incubated on a rotary shaker at room temperature for 2 hrs. Following five washes with TBST, 50 ul of anti-phage antibody-peroxidase conjugated TBST with 0.5% BSA was added and incubated on a rotary shaker for 2 hours at room temperature, then washed 5 times with TBST and twice with TBS. Fifty (50) ul of 1 step turbo-TMB-ELISA was added and the reaction is stopped by 50 μl of 2M H2SO4 and the absorbancy was read at 450 nm.

The target in a further experiment is T2, Kv1.1 (Rattus norvegicus, UniProt P10499).
T2 construct: expressed in transfected cells; host or cells: Xenopus laevis oocytes (cRNA injection)
Put plainly: Two electrode voltage clamp, Xenopus oocytes, Kv1.1. It is filed as cell-based. On the procedure:
as §1, §2

pIC50: −log10 of the molar value.

T2 sequence (P10499 whole entry): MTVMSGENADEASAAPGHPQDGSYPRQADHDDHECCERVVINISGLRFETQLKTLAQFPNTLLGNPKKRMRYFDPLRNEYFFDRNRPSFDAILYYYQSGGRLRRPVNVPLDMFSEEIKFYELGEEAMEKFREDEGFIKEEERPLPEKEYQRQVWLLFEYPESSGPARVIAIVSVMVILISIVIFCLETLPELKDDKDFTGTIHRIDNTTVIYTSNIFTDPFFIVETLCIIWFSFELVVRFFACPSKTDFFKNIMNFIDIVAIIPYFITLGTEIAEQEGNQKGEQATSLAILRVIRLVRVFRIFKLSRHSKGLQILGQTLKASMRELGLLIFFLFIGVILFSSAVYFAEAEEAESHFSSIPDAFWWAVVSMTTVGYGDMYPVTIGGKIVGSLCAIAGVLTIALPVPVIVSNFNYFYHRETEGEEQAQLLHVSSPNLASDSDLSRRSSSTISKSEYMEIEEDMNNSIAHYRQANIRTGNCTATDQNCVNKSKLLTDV
T1 sequence (Q08460 whole entry): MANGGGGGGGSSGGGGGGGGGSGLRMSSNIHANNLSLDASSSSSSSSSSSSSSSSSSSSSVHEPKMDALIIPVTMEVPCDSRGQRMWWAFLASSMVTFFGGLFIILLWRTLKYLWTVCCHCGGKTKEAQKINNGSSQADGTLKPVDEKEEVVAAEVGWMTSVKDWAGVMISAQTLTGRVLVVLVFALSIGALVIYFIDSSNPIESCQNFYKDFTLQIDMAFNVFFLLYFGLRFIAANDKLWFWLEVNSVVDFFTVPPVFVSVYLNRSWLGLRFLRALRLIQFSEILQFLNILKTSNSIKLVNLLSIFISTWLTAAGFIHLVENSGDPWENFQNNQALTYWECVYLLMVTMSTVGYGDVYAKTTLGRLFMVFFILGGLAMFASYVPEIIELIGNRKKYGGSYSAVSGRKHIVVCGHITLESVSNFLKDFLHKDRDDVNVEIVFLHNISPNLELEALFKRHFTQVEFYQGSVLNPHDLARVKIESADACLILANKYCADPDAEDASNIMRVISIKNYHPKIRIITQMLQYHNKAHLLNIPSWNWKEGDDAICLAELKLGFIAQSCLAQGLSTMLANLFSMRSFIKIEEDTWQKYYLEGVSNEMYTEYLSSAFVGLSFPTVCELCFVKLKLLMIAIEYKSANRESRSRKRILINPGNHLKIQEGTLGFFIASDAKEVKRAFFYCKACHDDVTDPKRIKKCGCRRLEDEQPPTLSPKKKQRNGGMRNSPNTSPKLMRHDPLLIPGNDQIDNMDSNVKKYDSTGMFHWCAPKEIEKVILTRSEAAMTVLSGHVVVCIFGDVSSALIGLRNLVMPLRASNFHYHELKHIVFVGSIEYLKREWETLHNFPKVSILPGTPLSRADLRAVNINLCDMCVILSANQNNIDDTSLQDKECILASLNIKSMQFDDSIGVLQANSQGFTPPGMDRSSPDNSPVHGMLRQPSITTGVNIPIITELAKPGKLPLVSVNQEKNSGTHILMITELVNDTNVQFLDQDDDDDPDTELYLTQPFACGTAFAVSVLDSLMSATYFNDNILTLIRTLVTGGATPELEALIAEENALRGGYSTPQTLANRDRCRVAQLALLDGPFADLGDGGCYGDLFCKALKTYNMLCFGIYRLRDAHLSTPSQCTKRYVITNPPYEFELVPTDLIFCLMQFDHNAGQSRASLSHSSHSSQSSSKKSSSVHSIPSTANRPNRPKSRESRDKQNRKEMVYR
Kv1.3, sequence (P22001 whole entry): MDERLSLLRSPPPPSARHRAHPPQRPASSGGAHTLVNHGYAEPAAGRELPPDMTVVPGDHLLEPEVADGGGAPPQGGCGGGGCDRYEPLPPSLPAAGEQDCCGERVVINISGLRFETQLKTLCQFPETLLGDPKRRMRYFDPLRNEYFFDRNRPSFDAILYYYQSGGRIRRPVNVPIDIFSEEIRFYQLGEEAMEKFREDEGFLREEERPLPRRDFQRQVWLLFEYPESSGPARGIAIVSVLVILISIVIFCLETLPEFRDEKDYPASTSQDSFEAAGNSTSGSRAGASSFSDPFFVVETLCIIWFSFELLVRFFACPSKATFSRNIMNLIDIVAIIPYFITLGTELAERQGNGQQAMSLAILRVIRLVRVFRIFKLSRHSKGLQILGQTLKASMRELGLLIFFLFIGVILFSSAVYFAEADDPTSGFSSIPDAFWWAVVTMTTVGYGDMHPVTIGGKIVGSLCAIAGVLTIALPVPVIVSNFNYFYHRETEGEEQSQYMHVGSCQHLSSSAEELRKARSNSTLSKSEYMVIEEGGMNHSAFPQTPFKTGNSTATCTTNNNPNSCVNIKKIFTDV

Consider `CC[C@H](C)[C@H](NC(=O)[C@H](CCC(=O)O)NC(=O)[C@@H](NC(=O)CN)C(C)C)C(=O)N[C@@H](CC(N)=O)C(=O)N[C@H](C(=O)N[C@@H](CCCCN)C(=O)N[C@H]1CSSC[C@@H]2NC(=O)[C@H](CCCCN)NC(=O)CNC(=O)[C@H](Cc3ccccc3)NC(=O)[C@H](CCCNC(=N)N)NC(=O)[C@H](CCSC)NC(=O)CNC(=O)[C@H](C)NC(=O)[C@H](CC(=O)O)NC(=O)[C@H](CCCCN)NC(=O)[C@@H]3CSSC[C@@H](C(=O)N[C@H](C(=O)N4CCC[C@H]4C(=O)N[C@@H](CCCCN)C(=O)O)[C@@H](C)O)NC(=O)[C@H](Cc4c[nH]cn4)NC(=O)[C@H](CSSC[C@H](NC(=O)[C@H](CCC(N)=O)NC(=O)[C@@H]4CCCN4C(=O)[C@H](CO)NC(=O)CNC(=O)[C@H](CO)NC1=O)C(=O)N[C@@H](CC(C)C)C(=O)N[C@@H](CCCCN)C(=O)N1CCC[C@H]1C(=O)N3)NC(=O)[C@H](CCCCN)NC(=O)[C@H](CCCNC(=N)N)NC(=O)[C@H](CC(N)=O)NC(=O)[C@H](CCSC)NC2=O)C(C)C` [KTX, kaliotoxin-1], for which the values for the pIC50 against Kv1.3, on BK and against Kv1.1 were 9.30, roughly 8.30 and 10.00, respectively. The “Koff [s]^−1” value on Kv1.3 (hKv1.3) is 0.0070 ± 0.0009 [s]^−1; on BK (mBK), 0.0211 ± 0.0008 [s]^−1; at Kv1.1 (rKv1.1) it was 0.009 ± 0.002 [s]^−1. The “Kon [M · s]^−1” value on Kv1.3 (hKv1.3) was 8 · 10^8 ± 1 · 10^8 [M · s]^−1; on BK (mBK) it was 21 · 10^3 ± 4 · 10^3 [M · s]^−1; on Kv1.1 (rKv1.1), 30 · 10^6 ± 16 · 10^6 [M · s]^−1. Further, the “binding of phage to KcsA-1.3 (KcsA-Kv1.3)” value in the experiment on KcsA-1.3 is reported as “specific binding”.

The record behind these values is patent US8716437B2 (priority 2007, dated 2014).
